Assay results published in article PMC3581553, “New Approaches of PARP-1 Inhibitors in Human Lung Cancer Cells and Cancer Stem-Like Cells by Some Selected Anthraquinone-Derived Small Molecules” (PLoS ONE, 2013).
Where two headings read alike, the source gives them in different places.

How the values were obtained:
NCI-H460 = assay: NCI-60 drug screen (SRB), NSCLC line NCI-H460; format: cell-based, human; conditions: for GI50 / LC50 (concentration killing 50% of cells): Homo sapiens
Protocol: (§1) As a primary screening, seven selected compounds were submitted to the National Cancer Institute (NCI) cell lines screen for evaluation of their anticancer activity. From the data analysis, it follows that approximately 95% of the actives from the 60 cell lines screen can be identified. The detailed methods used for the 60 cell lines panel have been described elsewhere [54]–[59]. Briefly, cellular protein levels were determined after 48 hours of drug exposure by SRB colorimetry. Through the use of a time zero cell control, the cell growth can be determined for each cell line thus allowing calculations of GI50, TGI, and LC50. Comparison to plates not exposed to drug permits determination of concentration and times of exposure conferring GI50, TGI, and LC50. […] By these criteria, seven compounds reported from our compounds bank were all active and passed on for evaluation in the full panel of 60 human tumor cell lines. The panel is organized into nine subpanels representing diverse histology: leukemia, melanoma, and cancers of the lung, colon, kidney, ovary, breast, prostate, and central nervous system.

NCI-H322M = assay: NCI-60 drug screen (SRB), NSCLC line NCI-H322M; format: cell-based, human; conditions: for GI50 / LC50: Homo sapiens
Protocol: as §1

PARP-1 = target: T1, PARP-1 (Homo sapiens, UniProt P09874); assay: PARP inhibitory assay (histone-coated plate, colorimetric); format: biochemical
T1 construct: purchased
Protocol: We used histone-coated 96-well plate treated with seven putative PARP-1 inhibitors or well-known PARP-1 inhibitors (3-AB), and then added PARP enzyme to each well. PARP enzyme catalyzes the NAD-dependent addition of poly (ADP-ribose) to histone, and diluted Strp-HRP could bind to PARylation histone. TACS-Sapphire™ yielded blue under the HRP existence. In order to systematically evaluate the potential anticancer activity, the compounds were tested for their cytotoxicity in vitro against 60 human cancer lines in the NCI anticancer drug screen as well as for dose response curves and telomerase activity. Cell growth was analyzed by the MTT assay, with differences between dose-response curves analyzed non-parametrically. Telomerase activity was detected by a modified version of the PCR-based assay and TRAP assay. […] However, PARP inhibitory effects had no difference at 1 and 10 µM. As described above, NSC746364, NSC746366 and NSC749232 show dose-dependency only at low concentrations. […] NSC747854 had dose-dependent PARP inhibitory manners at three different concentrations, and reached the maximum inhibitory effect of 86% at 10 µM (Table 4). […] In this investigation, we continued to focus our attention on the role of NSC747854 and to understand the basis of pharmacophore selectivity. Of particular note is the significant difference with these selected compounds, compared with that of 3-AB and PJ-34. […] An electron-rich aromatic ring system, including a carboxamide group, should have at least a hydrogen atom on the amide nitrogen. The amidinium moiety is known to contribute to the stabilization of DNA recognition element through electrostatic and hydrogen bonding interactions. Therefore, hydrogen bonds are frequently used as recognition elements due to their directionality and also due to being attractive factors to the biological activity (Figure 1). Many classes of drugs have substantial curvature, high DNA affinity, binding to the minor-groove or major-groove, interference with DNA-associated enzymes (e.g. telomerase), and Poly (ADP-ribose) polymerase, PARP. […] This approach greatly expands the utility of the substituents and related pharmacophore for the construction of drugs in general. Therefore, it is desirable to design PARP inhibitors in accordance with various anticancer parameters. It was first reported that anthraquinone analogues are potent human PARP inhibitors.
Strip wells were removed from the wrapper and 50 µl of 1X PARP Buffer was added to each well to rehydrate the histones. They were incubated at room temperature for 30 minutes. The 1X PARP buffer was removed from the wells by tapping the strip wells on paper towels. The serial dilutions of inhibitor of interest were added to appropriate wells. The diluted PARP enzyme (0.5 unit/well) was then added to the wells containing inhibitor. They were incubated for 10 minutes at room temperature. The PARP Enzyme-High Specific Activity (PARP-HAS) standard was serially diluted in cold micro-tubes with 1X PARP buffer such that the total activity was 1 unit/25 µl, 0.5 units/25 µl, 0.25 units/25 µl, 0.1 units/25 µl, 0.05 units/25 µl, 0.025 units/25 µl, and 0.01 units/25 µl, respectively. The 25 µl of each standard was added to triplicate wells. The 25 µl of 1X PARP cocktail were distributed into each well by using a multichannel pipettor. The final reaction volume is 50 µl. They were incubated along with the strip wells at room temperature for 60 minutes. The strip wells were washed 2 times with 1X PBS +0.1% Triton X-100 (200 µl/well) followed by 2 washes with 1X PBS. All the liquid was removed following each wash by tapping strip wells onto paper towels. The 50 µl diluted Strep-HRP were added per well. They were incubated at room temperature for 60 minutes. The strip wells were washed 2 times with 1X PBS +0.1% Triton X-100 (200 µl/well) followed by 2 washes with 1X PBS. All the liquid was removed following each wash by tapping strip wells onto paper towels. […]

NCI-H226 = assay: NCI-60 drug screen (SRB), NSCLC line NCI-H226; format: cell-based, human; conditions: for GI50 / CC50: Homo sapiens; for CC50: read-out: LC50 (the source's name)
Protocol: as §1

[1] = 48 hours drug exposure, SRB, read-out: GI50
[2] = NCI in vitro 60-cell lines Drug Screen, read-out: -Log GI50 (converted)

T1 sequence (P09874 whole entry): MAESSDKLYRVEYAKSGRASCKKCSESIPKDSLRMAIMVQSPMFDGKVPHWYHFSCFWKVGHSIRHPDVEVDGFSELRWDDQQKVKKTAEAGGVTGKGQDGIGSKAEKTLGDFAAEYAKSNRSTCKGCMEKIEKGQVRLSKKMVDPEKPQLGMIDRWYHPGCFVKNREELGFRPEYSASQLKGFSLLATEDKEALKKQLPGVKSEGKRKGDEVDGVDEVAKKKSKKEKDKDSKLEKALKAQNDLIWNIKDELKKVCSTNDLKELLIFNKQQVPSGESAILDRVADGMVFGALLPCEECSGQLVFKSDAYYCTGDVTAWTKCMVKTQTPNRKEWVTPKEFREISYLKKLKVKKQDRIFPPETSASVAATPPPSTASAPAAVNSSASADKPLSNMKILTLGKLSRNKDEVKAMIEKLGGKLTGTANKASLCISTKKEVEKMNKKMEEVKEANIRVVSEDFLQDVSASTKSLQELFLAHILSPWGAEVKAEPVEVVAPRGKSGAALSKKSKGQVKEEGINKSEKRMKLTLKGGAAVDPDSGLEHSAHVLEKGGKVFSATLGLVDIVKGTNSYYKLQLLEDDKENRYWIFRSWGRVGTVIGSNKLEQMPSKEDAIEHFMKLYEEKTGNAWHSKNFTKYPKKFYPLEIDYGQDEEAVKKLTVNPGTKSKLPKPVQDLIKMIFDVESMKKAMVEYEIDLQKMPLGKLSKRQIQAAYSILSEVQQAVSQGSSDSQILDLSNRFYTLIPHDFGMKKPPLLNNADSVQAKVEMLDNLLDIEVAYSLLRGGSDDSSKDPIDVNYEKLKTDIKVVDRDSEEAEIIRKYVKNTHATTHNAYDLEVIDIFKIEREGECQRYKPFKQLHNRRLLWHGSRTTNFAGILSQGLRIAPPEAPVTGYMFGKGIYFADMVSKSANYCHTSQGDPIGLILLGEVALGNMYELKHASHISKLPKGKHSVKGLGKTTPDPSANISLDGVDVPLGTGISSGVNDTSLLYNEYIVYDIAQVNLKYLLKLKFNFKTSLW

| Compound | TGI (NCI-H460; 48 hours drug exposure, SRB) [µM] | GI50 (NCI-H460; [1]) [µM] | GI50 (NCI-H460; [2]) [µM] | TGI (NCI-H322M; 48 hours drug exposure, SRB) [µM] | GI50 (NCI-H322M; [1]) [µM] | GI50 (NCI-H322M; [2]) [µM] | inhibition at 0.1 µM (PARP-1) [%] | inhibition at 1 µM (PARP-1) [%] | PARP inhibitory activity (%) (PARP-1; 10 µM) | TGI (NCI-H226; 48 hours drug exposure, SRB) [µM] | GI50 (NCI-H226; [1]) [µM] | CC50 (NCI-H226; 48 hours drug exposure, SRB) [µM] | GI50 (NCI-H226; [2]) [µM] | LC50 (concentration killing 50% of cells) (NCI-H460; 48 hours drug exposure, SRB) [µM] | LC50 (NCI-H322M; 48 hours drug exposure, SRB) [µM] | inhibition at 10 µM (PARP-1; 10 µM) [%] |
| --- | --- | --- | --- | --- | --- | --- | --- | --- | --- | --- | --- | --- | --- | --- | --- | --- |
| CN(C)CCCSc1nc2ccc3c(c2[nH]1)C(=O)c1ccccc1C3=O [NSC747854] | 12.8 | 2.13 | 2.14 | 20.6 | 0.72 | 0.724 | 30 | 57 | 65 | 22.1 | 3.74 | 58.7 | 3.72 | – | – | – |
| O=C(CCN1CCCC1)Nc1ccc2c(c1)C(=O)c1cc(NC(=O)CCN3CCCC3)ccc1C2=O [NSC746366] | >100 | 2.69 | 2.69 | 10.9 | 1.81 | 1.82 | 16 | 45 | – | 12.6 | 2.72 | 58.3 | 2.69 | > 100 | 42 | 47 |
| CN1CCN(Cc2nc3ccc4c(c3[nH]2)C(=O)c2ccccc2C4=O)CC1 [NSC749235] | 15.2 | 3.79 | 3.8 | 43.3 | 8.7 | 8.71 | 40 | 28 | – | 31.1 | 8.32 | > 100 | 8.32 | 45.1 | > 100 | 58 |
| CN(C)CC(=O)Nc1ccc2c(c1)C(=O)c1cc(NC(=O)CN(C)C)ccc1C2=O [NSC746364] | 3.35 | 1.37 | 1.38 | 4.91 | 1.86 | 1.86 | 31 | 54 | – | 32.4 | 15.5 | 67.4 | 15.5 | 8.2 | 83.1 | 56 |
| CCN(CC)CCC(=O)Nc1ccc2c(c1)C(=O)c1cc(NC(=O)CCN(CC)CC)ccc1C2=O [NSC746365] | 4.85 | 1.9 | 1.91 | – | 2.85 | 2.82 | 50 | 56 | – | 20.3 | 6.56 | 45.9 | 6.61 | > 100 | 4.71 | 51 |
| Cc1ccc(C(=O)Nc2c(NC(=O)CCl)ccc3c2C(=O)c2ccccc2C3=O)cc1 [NSC749232] | 14.1 | 5.81 | 5.75 | 13.7 | 3.76 | 3.8 | 42 | 51 | – | 20.8 | 8.81 | 49.1 | 8.91 | 34.1 | 45.4 | 52 |
